Activity calls are given as the source filed them. No cut-off for these calls is given here.
Key:
[1] = system: Hepatitis delta virus; assay: Antiviral activity against HDV infected in human HepG2-NTCP cells assessed as reduction in intranuclear accumulation of HDV delta antigen at 5 uM incubated for 24 hrs followed by replacement with fresh medium and measured at day 5 post infection by DAPI staining based confocal microscopic analysis (reference value: 12.1 %); type: functional; set-up: scale not given: the % may be the effect or the level left
[2] = molecular target: T1, Hepatic sodium/bile acid cotransporter (Homo sapiens, UniProt Q14973); assay: Inhibition of human NTCP-mediated [3H]-TCA uptake expressed in human HepG2 cells at 2 uM; type: cell-based; details: hepg2, 2 µM
T1 sequence (Q14973 whole entry): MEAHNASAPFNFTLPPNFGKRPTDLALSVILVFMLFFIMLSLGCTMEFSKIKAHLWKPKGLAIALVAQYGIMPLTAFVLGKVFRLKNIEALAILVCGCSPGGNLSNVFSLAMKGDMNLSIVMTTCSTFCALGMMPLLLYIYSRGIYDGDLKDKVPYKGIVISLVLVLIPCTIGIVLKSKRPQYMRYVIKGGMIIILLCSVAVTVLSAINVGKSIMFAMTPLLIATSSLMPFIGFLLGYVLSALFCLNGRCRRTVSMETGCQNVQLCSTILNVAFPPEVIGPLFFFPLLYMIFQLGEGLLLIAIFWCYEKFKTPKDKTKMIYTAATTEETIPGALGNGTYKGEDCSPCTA

[3] = system: Hepatitis B virus; assay: Antiviral activity against HBV infected in human HepG2-NTCP cells assessed as reduction in HBeAg secretion at 111 to 1000 nM incubated for 24 hrs followed by replacement with fresh medium and measured at day 5 post infection by ELISA; type: functional, organism-based; details: dose 111-1000 nM
[4] = system: Hepatitis B virus; assay: Antiviral activity against HBV infected in human HepG2-NTCP cells assessed as reduction in HBeAg secretion at 1 uM compound added along with viral infection by ELISA; type: functional, organism-based
[5] = system: Hepatitis B virus; assay: Antiviral activity against HBV infected in human HepG2-NTCP cells assessed as reduction in intracellular accumulation of HBcAg at 1 uM by immunostaining based fluorescence microscopic analysis; type: functional, organism-based
[6] = molecular target: T2, Solute carrier organic anion transporter family member 1B1 (Homo sapiens, UniProt Q9Y6L6); assay: Inhibition of human OATP1B1-mediated [3H]-Estrone sulfate uptake expressed in human HepG2 cells at 2 uM; type: cell-based; details: hepg2, 2 µM
T2 sequence (Q9Y6L6 whole entry): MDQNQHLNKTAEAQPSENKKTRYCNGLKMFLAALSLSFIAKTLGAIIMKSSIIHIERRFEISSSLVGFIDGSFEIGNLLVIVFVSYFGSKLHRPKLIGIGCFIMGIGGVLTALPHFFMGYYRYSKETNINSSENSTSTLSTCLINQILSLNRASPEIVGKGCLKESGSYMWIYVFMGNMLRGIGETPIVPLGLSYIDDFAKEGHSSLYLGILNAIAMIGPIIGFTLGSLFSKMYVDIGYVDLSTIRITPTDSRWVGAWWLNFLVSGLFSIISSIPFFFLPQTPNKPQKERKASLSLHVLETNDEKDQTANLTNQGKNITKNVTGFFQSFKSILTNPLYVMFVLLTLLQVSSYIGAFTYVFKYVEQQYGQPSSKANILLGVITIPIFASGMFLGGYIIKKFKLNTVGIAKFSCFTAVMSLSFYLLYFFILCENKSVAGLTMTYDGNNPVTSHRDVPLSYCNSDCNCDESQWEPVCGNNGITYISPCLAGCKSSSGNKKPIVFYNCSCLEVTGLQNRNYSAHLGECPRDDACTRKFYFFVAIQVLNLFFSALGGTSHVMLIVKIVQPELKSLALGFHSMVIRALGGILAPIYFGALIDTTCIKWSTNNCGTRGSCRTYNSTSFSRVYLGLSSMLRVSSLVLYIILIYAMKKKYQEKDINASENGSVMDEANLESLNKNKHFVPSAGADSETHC

[7] = system: Hepatitis B virus; assay: Antiviral activity against HBV infected in human HepG2-NTCP cells assessed as reduction in HBeAg secretion at 1 uM pre-infected with virus followed by compound addition by ELISA; type: functional, organism-based
[8] = system: Hepatitis B virus; assay: Antiviral activity against HBV infected in human HepG2-NTCP cells assessed as reduction in HBeAg secretion at 1 uM preincubated with compound followed by viral infection by ELISA; type: functional, organism-based
[9] = molecular target: T1, Hepatic sodium/bile acid cotransporter; assay: Inhibition of human NTCP-mediated [3H]-Estrone sulfate uptake expressed in human HepG2 cells at 2 uM; type: cell-based; details: hepg2, 2 µM
[10] = system: Hepatitis B virus; assay: Antiviral activity against HBV infected in human HepG2-NTCP cells assessed as reduction in intracellular accumulation of HBsAg at 1 uM by immunostaining based fluorescence microscopic analysis; type: functional, organism-based
[11] = system: HepG2; assay: Effect on NTCP surface expression in human HepG2-NTCP cells assessed as reduction in NTCP surface expression level after 2 hrs by immunostaining based assay; type: functional, cell-based
[12] = molecular target: T1, Hepatic sodium/bile acid cotransporter; assay: Inhibition of FITC-labeled HBV Pre-S1 polypeptide binding to human NTCP expressed in HepG2 cells after 2 to 3 hrs by confocal microscopic analysis; type: cell-based; details: time 2-3 hrs
[13] = system: Hepatitis B virus; assay: Antiviral activity against HBV infected in human HepG2-NTCP cells assessed as reduction in intracellular HBV RNA level at 1 uM by qPCR analysis; type: functional, organism-based
[14] = system: Hepatocyte; assay: Cytotoxicity against primary tupaia hepatocytes expressing NTCP assessed as reduction in cell viability at 100 uM after 48 hrs by Cell-Titer Glo assay; type: cell-based; details: scandentia
[15] = molecular target: T3, Ileal sodium/bile acid cotransporter (Homo sapiens, UniProt Q12908); assay: Inhibition of human ASBT-mediated [3H]-TCA uptake expressed in human HepG2 cells at 2 uM; type: cell-based; details: hepg2, 2 µM
T3 sequence (Q12908 whole entry): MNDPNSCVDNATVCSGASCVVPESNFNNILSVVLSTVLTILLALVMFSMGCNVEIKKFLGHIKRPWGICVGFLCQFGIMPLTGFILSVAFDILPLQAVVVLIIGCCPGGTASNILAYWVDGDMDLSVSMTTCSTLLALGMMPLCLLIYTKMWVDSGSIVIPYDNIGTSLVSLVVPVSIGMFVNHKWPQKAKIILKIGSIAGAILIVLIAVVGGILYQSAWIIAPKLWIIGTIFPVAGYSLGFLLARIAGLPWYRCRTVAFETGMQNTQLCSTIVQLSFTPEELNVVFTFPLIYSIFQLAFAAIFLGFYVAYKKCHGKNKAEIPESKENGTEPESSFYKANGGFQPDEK

[16] = system: HepG2; assay: Cytotoxicity against human HepG2 cells expressing NTCP assessed as reduction in cell viability at 10 uM after 48 hrs by alamar blue assay; type: cell-based; details: hepg2, 48 h
[17] = system: Hepatitis B virus; assay: Antiviral activity against HBV infected in human HepG2-NTCP cells assessed as reduction in HBeAg secretion incubated for 24 hrs followed replacement with fresh medium and measured at day 5 post infection by ELISA; type: functional, organism-based
[18] = molecular target: T1, Hepatic sodium/bile acid cotransporter; assay: Inhibition of human NTCP-mediated NQL-065 uptake expressed in human HepG2 cells incubated for 30 mins; type: cell-based; details: hepg2, 0.5 h
[19] = system: HepG2; assay: Inhibition of tree shrew NTCP-mediated [3H]-TCA uptake expressed in human HepG2 cells; type: cell-based; details: Scandentia
[20] = system: HepG2; assay: Inhibition of monkey NTCP-mediated [3H]-TCA uptake expressed in human HepG2 cells; type: cell-based; details: Macaca mulatta
[21] = system: Hepatitis B virus; assay: Antiviral activity against HBV infected in human HepG2-NTCP cells assessed as reduction in HBeAg secretion preincubated for 2 hrs followed by viral infection by ELISA; type: functional, organism-based
[22] = molecular target: T4, Hepatic sodium/bile acid cotransporter (Mus musculus, UniProt O08705); assay: Inhibition of mouse NTCP-mediated [3H]-TCA uptake expressed in human HepG2 cells; type: cell-based
T4 sequence (O08705 whole entry): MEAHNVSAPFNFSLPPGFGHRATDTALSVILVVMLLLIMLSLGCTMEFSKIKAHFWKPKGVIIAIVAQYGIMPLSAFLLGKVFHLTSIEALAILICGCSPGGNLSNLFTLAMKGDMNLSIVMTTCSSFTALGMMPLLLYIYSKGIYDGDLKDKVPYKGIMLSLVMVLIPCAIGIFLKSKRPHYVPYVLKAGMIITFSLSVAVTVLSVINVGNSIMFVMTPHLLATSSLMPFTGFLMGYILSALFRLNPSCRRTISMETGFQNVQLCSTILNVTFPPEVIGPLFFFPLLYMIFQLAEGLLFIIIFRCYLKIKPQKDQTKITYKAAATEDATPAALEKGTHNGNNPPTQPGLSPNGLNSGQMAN

[23] = molecular target: T1, Hepatic sodium/bile acid cotransporter; assay: Inhibition of human NTCP-mediated NQL-064 uptake expressed in human HepG2 cells incubated for 30 mins; type: cell-based; details: hepg2, 0.5 h
[24] = molecular target: T1, Hepatic sodium/bile acid cotransporter; assay: Inhibition of human NTCP-mediated [3H]-TCA uptake expressed in human HepG2 cells; type: cell-based; details: human, hepg2
[25] = molecular target: T1, Hepatic sodium/bile acid cotransporter; assay: Inhibition of human NTCP-mediated [3H]-TCA uptake expressed in human HepG2 cells pretreated for 2 hrs followed by [3H]-TCA addition in absence of FBS; type: cell-based

| SMILES | Activity [1] [%] | inhibition (INH) [2] | Activity [3] | Activity [4] | Activity [5] | inhibition (INH) [6] | Activity [7] | Activity [8] | inhibition (INH) [9] | Activity [10] | Activity [11] | inhibition (INH) [12] | Activity [13] | Activity [14] | inhibition (INH) [15] | Activity [16] | IC50 [17] [nM] | inhibition (INH) [18] | Activity [21] | inhibition (INH) [23] | other results |
| --- | --- | --- | --- | --- | --- | --- | --- | --- | --- | --- | --- | --- | --- | --- | --- | --- | --- | --- | --- | --- | --- |
| C[C@@H]1CCC(=O)NCCNC(=O)CC[C@@H](C)[C@H]2CC[C@H]3[C@@H]4[C@@H](O)C[C@@H]5C[C@@H](CC[C@]5(C)[C@H]4CC[C@]23C)NC(=O)CCCC(=O)N[C@@H]2CC[C@@]3(C)[C@@H](C2)C[C@H](O)[C@@H]2[C@@H]3CC[C@]3(C)[C@@H]1CC[C@@H]23 | 2.9 | Active | Active | Active | Active | Not Active | inactive | Active | Active | Active | inactive | Active | Active | Non-Toxic | Not Active | Non-Toxic | 100 |  |  |  |  |
| C[C@H](CCCN(CC[C@@H](C)[C@H]1CC[C@H]2[C@@H]3[C@@H](O)C[C@@H]4C[C@H](O)CC[C@]4(C)[C@H]3CC[C@]12C)CCS(=O)(=O)O)[C@H]1CC[C@H]2[C@@H]3[C@@H](O)C[C@@H]4C[C@H](O)CC[C@]4(C)[C@H]3CC[C@]12C | 4.6 | Active | Active | Active | Active | Not Active | inactive | Active | Active | Active | inactive | Active | Active | Non-Toxic | Not Active | Non-Toxic | 110 | Active | Active | Active | inhibition [19]: Active; inhibition [20]: Active; inhibition (INH) [22]: Active; inhibition (INH) [24]: Active |
| C[C@H](CCC(=O)NCCS(=O)(=O)O)[C@H]1CC[C@H]2[C@@H]3[C@@H](O)C[C@@H]4C[C@H](OC(=O)CCCC(=O)O[C@@H]5CC[C@@]6(C)[C@@H](C5)C[C@H](O)[C@@H]5[C@@H]6CC[C@]6(C)[C@@H]([C@H](C)CCC(=O)NCCS(=O)(=O)O)CC[C@@H]56)CC[C@]4(C)[C@H]3CC[C@]12C | 2.8 | Active | Active | Active | Active | Not Active | inactive | Active | Active | Active | inactive | Active | Active | Non-Toxic | Not Active | Non-Toxic | 65 | Active | inactive | Active |  |
| C[C@H](CCC(=O)NCCS(=O)(=O)O)[C@H]1CC[C@H]2[C@@H]3[C@@H](O)C[C@@H]4C[C@H](NCCCCCN[C@@H]5CC[C@@]6(C)[C@@H](C5)C[C@H](O)[C@@H]5[C@@H]6CC[C@]6(C)[C@@H]([C@H](C)CCC(=O)NCCS(=O)(=O)O)CC[C@@H]56)CC[C@]4(C)[C@H]3CC[C@]12C |  |  |  |  |  |  |  |  |  |  |  |  |  |  |  |  | 9650 |  |  |  |  |
| C[C@@H]1CCC(=O)NCCNC(=O)CC[C@@H](C)[C@H]2CC[C@H]3[C@@H]4[C@@H](O)C[C@@H]5C[C@@H](CC[C@]5(C)[C@H]4CC[C@]23C)n2cc(nn2)CO[C@@H]2CC[C@@]3(C)[C@@H](C2)C[C@H](O)[C@@H]2[C@@H]3CC[C@]3(C)[C@@H]1CC[C@@H]23 |  |  |  |  |  |  |  |  |  |  |  |  |  |  |  |  | 81 |  |  |  | IC50 [25]: 37.5 nM |

— ChEMBL document CHEMBL4834431, “Design of Dimeric Bile Acid Derivatives as Potent and Selective Human NTCP Inhibitors” (J Med Chem, 2021)
